One test has as its system pseudotypes VSV (BLV). Format: cell-based, virus BLV.
The test system of test [1] is sérums d'animaux infectés par le virus BLV. The test is classed as binding, bovin, ovin.

Ends that are not written are not given here.

For the sequence “EPRCPYVGADHFDCP (cysteine pairing not given here) [peptide 78-92, séquence 78-92 de la gp51]”, in the test with pseudotypes VSV (BLV), the “capacité à inhiber les pseudotypes” value is “remarquable capacité à inhiber les pseudotypes” and the “induction d'anticorps neutralisants” value is on record as “induire des anticorps neutralisants”. For the same sequence, in test [1], the “reconnaissance de l'oligopeptide par les sérums” value is “reconnu à la fois par le sérum bovin (sérum n° 15) et le sérum ovin (sérum n° 65)”.

These data come from patent EP0284492A1, “Peptidic fractions inducing protective antibodies against the bovine leukemia virus, process for obtaining such fractions, their coding sequences and vaccines produced by these fractions” (RHONE MERIEUX, priority 1987, dated 1988).
